Experimental data as given in patent publication US11866450B2, “Modulators of Cystic Fibrosis Transmembrane Conductance regulator, pharmaceutical compositions, methods of treatment, and process for making the modulators” (priority 2018, dated 2024).

Target: CFTR-mediated chloride transport (Homo sapiens, UniProt P13569)
Type: cell-based
Details: enteroid cells incubated with test compound 18-24 hours, acute 10 μM forskolin and 300 nM Compound III; for Max. Activity: % of chloride transport with 3 μM Compound A, 3 μM Compound II and 300 nM acute Compound III triple combination control
Description: Base medium (ADF+++) consisted of Advanced DMEM/Ham's F12, 2 mM Glutamax, 10 mM HEPES, […] penicillin/streptomycin.
Intestinal enteroid maintenance medium (IEMM) consisted of ADF+++, 1× B27 supplement, 1× N2 supplement, 1.25 mM N-acetyl cysteine, 10 mM Nicotinamide, 50 ng/mL hEGF, 10 nM Gastrin, 1 μg/mL hR-spondin-1, 100 ng/mL hNoggin, TGF-b type 1 inhibitor A-83-01, 100 μg/mL Primocin, 10 μM P38 MAPK inhibitor SB202190.
Bath 1 Buffer consisted of 1 mM MgCl2, 160 mM NaCl, 4.5 mM KCl, 10 mM HEPES, 10 mM Glucose, 2 mM CaCl2).
Chloride Free Buffer consisted of 1 mM Magnesium Gluconate, 2 mM Calcium Gluconate, 4.5 mM Potassium Gluconate, 160 mM Sodium Gluconate, 10 mM HEPES, 10 mM Glucose.
Bath1 Dye Solution consisted of Bath 1 Buffer, 0.04% Pluronic F127, 20 μM Methyl Oxonol, 30 μM CaCCinh-A01, 30 μM Chicago Sky Blue.
Chloride Free Dye Solution consisted of Chloride Free Buffer, 0.04% Pluronic F127, 20 μM Methyl Oxonol, 30 μM CaCCinh-A01, 30 μM Chicago Sky Blue.
Chloride Free Dye Stimulation Solution consisted of Chloride Free Dye Solution, 10 μM forskolin, 100 μM IBMX, and 300 nM Compound III.
Human intestinal epithelial enteroid cells were obtained from the Hubrecht Institute for Developmental Biology and Stem Cell Research, Utrecht, The Netherlands and expanded in T-Flasks as previously described (Dekkers J F, Wiegerinck C L, de Jonge H R, Bronsveld I, Janssens H M, de Winter-de Groot K M, Brandsma A M, de Jong N W M, Bijvelds M J C, Scholte B J, Nieuwenhuis E E S, van den Brink S, Clevers H, van der Ent C K, Middendorp S and M Beekman J M. A functional CFTR assay using primary cystic fibrosis intestinal organoids. Nat Med. 2013 July; 19(7):939-45).
Cells were recovered in cell recovery solution, collected by centrifugation at 650 rpm for 5 min at 4° C., resuspended in TryPLE and incubated for 5 min at 37° C. Cells were then collected by centrifugation at 650 rpm for 5 min at 4° C. and resuspended in IEMM containing 10 μM ROCK inhibitor (RI) (trans-4-[(1R)-1-aminoethyl]-N-4-pyridinylcyclohexanecarboxamide). The cell suspension was passed through a 40 μm cell strainer and resuspended at 1×10^6 cells/mL in IEMM containing 10 μM RI. Cells were seeded at 5000 cells/well into multi-well plates and incubated for overnight at 37° C., 95% humidity and 5% CO2 prior to assay.
Enteroid cells were incubated with test compound in IEMM for 18-24 hours at 37° C., 95% humidity and 5% CO2. Following compound incubations, a membrane potential dye assay was employed using a FLIPR Tetra to directly measure the potency and efficacy of the test compound on CFTR-mediated chloride transport following acute addition of 10 μM forskolin and 300 nM Compound III. Briefly, cells were washed 5 times in Bath 1 Buffer. Bath 1 Dye Solution was added and the cells were incubated for 25 min at room temperature. Following dye incubation, cells were washed 3 times in Chloride Free Dye Solution. Chloride transport was initiated by addition of Chloride Free Dye Stimulation Solution and the fluorescence signal was read for 15 min. The CFTR-mediated chloride transport for each condition was determined from the AUC of the fluorescence response to acute forskolin and 300 nM Compound III stimulation. Chloride transport was then expressed as a percentage of the chloride transport following treatment with 3 μM Compound A, 3 μM Compound II and 300 nM acute Compound III triple combination control (% Activity).

Sequence of CFTR-mediated chloride transport (P13569 whole entry, looked up): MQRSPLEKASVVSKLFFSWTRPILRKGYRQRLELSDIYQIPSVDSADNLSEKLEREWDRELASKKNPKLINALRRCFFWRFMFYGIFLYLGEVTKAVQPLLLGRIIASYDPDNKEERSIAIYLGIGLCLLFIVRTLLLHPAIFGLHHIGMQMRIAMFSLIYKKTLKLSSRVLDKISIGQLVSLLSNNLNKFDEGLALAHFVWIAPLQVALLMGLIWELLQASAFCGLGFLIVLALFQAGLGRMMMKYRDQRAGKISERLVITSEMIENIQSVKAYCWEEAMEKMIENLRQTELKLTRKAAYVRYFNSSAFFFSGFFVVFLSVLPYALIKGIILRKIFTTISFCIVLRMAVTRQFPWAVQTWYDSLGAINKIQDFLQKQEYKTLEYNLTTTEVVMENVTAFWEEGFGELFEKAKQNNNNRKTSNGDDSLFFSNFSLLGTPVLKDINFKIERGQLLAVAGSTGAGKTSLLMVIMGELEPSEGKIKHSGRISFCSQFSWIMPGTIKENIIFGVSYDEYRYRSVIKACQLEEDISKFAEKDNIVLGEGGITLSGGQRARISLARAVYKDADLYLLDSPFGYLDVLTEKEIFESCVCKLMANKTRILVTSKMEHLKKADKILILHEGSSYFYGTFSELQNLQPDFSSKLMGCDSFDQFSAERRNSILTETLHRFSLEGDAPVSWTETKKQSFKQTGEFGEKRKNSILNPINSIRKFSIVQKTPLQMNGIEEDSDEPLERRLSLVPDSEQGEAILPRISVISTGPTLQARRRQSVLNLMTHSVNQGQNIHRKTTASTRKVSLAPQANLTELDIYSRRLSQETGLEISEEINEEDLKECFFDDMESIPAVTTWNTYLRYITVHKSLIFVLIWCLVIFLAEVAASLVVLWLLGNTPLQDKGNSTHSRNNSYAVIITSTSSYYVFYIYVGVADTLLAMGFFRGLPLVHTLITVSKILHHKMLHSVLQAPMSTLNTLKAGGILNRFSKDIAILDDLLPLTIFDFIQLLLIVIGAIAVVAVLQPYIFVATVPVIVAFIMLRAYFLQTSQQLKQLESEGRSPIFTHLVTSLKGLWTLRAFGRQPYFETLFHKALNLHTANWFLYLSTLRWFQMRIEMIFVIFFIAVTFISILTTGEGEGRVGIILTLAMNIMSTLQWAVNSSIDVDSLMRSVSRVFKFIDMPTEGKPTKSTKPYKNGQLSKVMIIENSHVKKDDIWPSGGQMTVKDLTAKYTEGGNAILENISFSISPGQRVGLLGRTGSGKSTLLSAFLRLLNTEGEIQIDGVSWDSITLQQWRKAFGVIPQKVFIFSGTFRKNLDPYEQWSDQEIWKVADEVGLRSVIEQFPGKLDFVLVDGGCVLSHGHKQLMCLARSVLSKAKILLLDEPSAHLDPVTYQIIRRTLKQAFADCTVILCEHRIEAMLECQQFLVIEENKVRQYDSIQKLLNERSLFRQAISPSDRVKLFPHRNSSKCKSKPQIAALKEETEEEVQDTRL

SMILES	EC50 [nM]	Max. Activity
CC1(C)C[C@H]2CCCCNc3cccc(n3)S(=O)(=O)NC(=O)c3ccc(-n4ccc(OCCC5(C(F)(F)F)CC5)n4)nc3N1C2 (single isomer, unassigned) [Compound 29, 12,12-dimethyl-8-(3-{2-[1-(trifluoromethyl)cyclopropyl]ethoxy}-1H-pyrazol-1-yl)-2λ^6-thia-3,9,11,19,24-pentaazatetracyclo[18.3.1.111,14.05,10]pentacosa-1(23),5,7,9,20(24),21-hexaene-2,2,4-trione]	< 1000	++ (++ is 30-60%)
CC1(C)C[C@H]2CCCCNc3cccc(n3)S(=O)(=O)NC(=O)c3ccc(-n4ccc(OCCC5(C(F)(F)F)CC5)n4)nc3N1C2 (single isomer, unassigned) [Compound 30, 12,12-dimethyl-8-(3-{2-[1-(trifluoromethyl)cyclopropyl]ethoxy}-1H-pyrazol-1-yl)-2λ^6-thia-3,9,11,19,24-pentaazatetracyclo[18.3.1.111,14.05,10]pentacosa-1(23),5,7,9,20(24),21-hexaene-2,2,4-trione]	< 1000	+++ (+++ is >60%)
CC1(C)C[C@H]2CCCCn3ccc(n3)S(=O)(=O)NC(=O)c3ccc(-n4ccc(OCCC5(C(F)(F)F)CC5)n4)nc3N1C2 (single isomer, unassigned) [Compound 44, 21,21-dimethyl-4-(3-{2-[1-(trifluoromethyl)cyclopropyl]ethoxy}-1H-pyrazol-1-yl)-10λ^6-thia-1,3,9,14,23-pentaazatetracyclo[17.2.1.111,14.02,7]tricosa-2,4,6,11(23),12-pentaene-8,10,10-trione]	> 3000	++ (++ is 30-60%)
CC1(C)C[C@H]2CCCCn3ccc(n3)S(=O)(=O)NC(=O)c3ccc(-n4ccc(OCCC5(C(F)(F)F)CC5)n4)nc3N1C2 (single isomer, unassigned) [Compound 45, 21,21-dimethyl-4-(3-{2-[1-(trifluoromethyl)cyclopropyl]ethoxy}-1H-pyrazol-1-yl)-10λ^6-thia-1,3,9,14,23-pentaazatetracyclo[17.2.1.111,14.02,7]tricosa-2,4,6,11(23),12-pentaene-8,10,10-trione]	< 1000	+++ (+++ is >60%)
CC1(C)CC[C@H]2CCCCNc3cccc(n3)S(=O)(=O)NC(=O)c3ccc(-n4ccc(OCCC5(C(F)(F)F)CC5)n4)nc3N21 (single isomer, unassigned) [Compound 46, 12,12-dimethyl-8-(3-{2-[1-(trifluoromethyl)cyclopropyl]ethoxy}-1H-pyrazol-1-yl)-2λ^6-thia-3,9,11,20,25-pentaazatetracyclo[19.3.1.05,10.011,15]pentacosa-1(24),5,7,9,21(25),22-hexaene-2,2,4-trione]	> 3000	+ (+ is <30%)
CC1(C)CC[C@H]2CCCCNc3cccc(n3)S(=O)(=O)NC(=O)c3ccc(-n4ccc(OCCC5(C(F)(F)F)CC5)n4)nc3N21 (single isomer, unassigned) [Compound 47, 12,12-dimethyl-8-(3-{2-[1-(trifluoromethyl)cyclopropyl]ethoxy}-1H-pyrazol-1-yl)-2λ^6-thia-3,9,11,20,25-pentaazatetracyclo[19.3.1.05,10.011,15]pentacosa-1(24),5,7,9,21(25),22-hexaene-2,2,4-trione]	< 1000	+++ (+++ is >60%)
CC1(C)C[C@H]2CCCOc3cccc(n3)S(=O)(=O)NC(=O)c3ccc(-n4ccc(OCCC5(C(F)(F)F)CC5)n4)nc3N1C2 (single isomer, unassigned) [Compound 48, 12,12-dimethyl-8-(3-{2-[1-(trifluoromethyl)cyclopropyl]ethoxy}-1H-pyrazol-1-yl)-18-oxa-2λ^6-thia-3,9,11,23-tetraazatetracyclo[17.3.1.111,14.05,10]tetracosa-1(22),5,7,9,19(23),20-hexaene-2,2,4-trione]	> 3000	+ (+ is <30%)
